From patent US4943587A, “Hydroxamate derivatives of selected nonsteroidal antiinflammatory acyl residues and their use for cyclooxygenase and 5-lipoxygenase inhibition” (Warner-Lambert Company, priority 1988, dated 1990)

Experiments:
[1] = system: Carrageenan-induced rat foot paw edema; assay: Carrageenan-induced rat foot paw edema (CFE-2) assay; type: in vivo; conditions: read-out: CFE % Inhibition @ Dose; for inhibition in vivo at 30 mg/kg: 30 mg/kg PO; for inhibition in vivo at 30 mg/kg / inhibition in vivo at 10 mg/kg: 1 h before carrageenan, edema at 5 h; for inhibition in vivo at 10 mg/kg: 10 mg/kg PO
Experimental: Carrageenan-Induced Rat Foot Paw Edema-2 (CFE-2) Assay: Protocol
Carrageenan solution (1% w/v) is prepared by dissolving 100 mg carrageenan (Marine Colloidal Div., Springfield, N.J.) in 10 ml of sterile saline (0.9%) solution (Travenol). The solution is vortexed for thirty to forty-five minutes. Animals are dosed with compound one hour before carrageenan challenge. Foot paw edema is induced by injecting 0.05 ml of the 1% carrageenan subcutaneously into the plantar portion of the right hind paw of each rat under light anesthesia. Initial foot paw volume is measured immediately following carrageenan challenge using mercury plethysmography (Buxco Electronics). Edema is measured five hours after carrageenan. The difference between the five-hour and the initial paw volume is expressed as delta edema. The delta edema for each test group of animals is used to calculate the percent inhibition of edema achieved by the compound at the test dose compared with the vehicle control group. The ID25 (the dose at which swelling is inhibited by 25%) was calculated by probit analysis for the dose at which a result of 25 percent inhibition occurs.

5-Lipoxygenase = target: T1, 5-Lipoxygenase (Rattus norvegicus, UniProt P12527); assay: ARBL: RBL-1 whole cell 5-lipoxygenase assay (inhibition of LTB4 formation); type: cell-based; conditions: RBL-1 cells, A23187 5 μM
T1 construct: host or cells: RBL-1 (rat basophilic leukemia)
T1 sequence (P12527 1-673): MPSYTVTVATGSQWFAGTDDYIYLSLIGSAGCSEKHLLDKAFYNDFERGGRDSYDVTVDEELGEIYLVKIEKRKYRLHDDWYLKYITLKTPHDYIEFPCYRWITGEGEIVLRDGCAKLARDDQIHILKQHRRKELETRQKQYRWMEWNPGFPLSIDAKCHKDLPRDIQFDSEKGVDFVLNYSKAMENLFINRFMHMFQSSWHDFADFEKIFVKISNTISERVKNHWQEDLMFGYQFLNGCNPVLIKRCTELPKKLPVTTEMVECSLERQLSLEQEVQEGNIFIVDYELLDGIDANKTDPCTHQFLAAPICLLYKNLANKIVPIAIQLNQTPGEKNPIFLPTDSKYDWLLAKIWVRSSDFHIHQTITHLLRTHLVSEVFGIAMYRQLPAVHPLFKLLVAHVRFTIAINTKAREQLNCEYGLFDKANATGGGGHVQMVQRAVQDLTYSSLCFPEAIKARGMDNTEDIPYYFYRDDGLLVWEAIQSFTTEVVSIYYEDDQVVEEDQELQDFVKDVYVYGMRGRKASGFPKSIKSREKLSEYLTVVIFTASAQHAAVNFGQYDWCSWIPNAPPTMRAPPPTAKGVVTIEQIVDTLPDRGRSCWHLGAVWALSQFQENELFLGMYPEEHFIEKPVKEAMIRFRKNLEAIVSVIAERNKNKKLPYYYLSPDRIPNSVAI
Experimental: (§1) ARBL/ARBC Whole Cell 5-Lipoxygenase and Cyclooxygenase Assays
(§2) The rat basophilic leukemia cell line (RBL-1) was obtained from the American Type Culture Collection (Rockville, Md.).
(§3) Radioimmuno assay (RIA) kits of LTB4 and PGF2α were obtained from Amersham (Arlington Heights, Ill.) and Seragen (Boston, Mass.) respectively.
RBL-1 cells are grown in suspension culture in Eagle's minimum essential medium supplemented with 12% fetal bovine serum at 37° C. in an incubator supplied with air-5% carbon dioxide. Cells are harvested by centrifugation. They are washed with cold phosphate buffered saline pH 7.4 (PBS; NaCl, 7.1 g; Na2 PO4, 1.15 g; KH2 PO4, 0.2 g; and KCl, 0.2 g/l). Cells are finally suspended in PBS containing 1.0 mM calcium at a density of 2×10^6 cells/ml. Cells are incubated with and without test agent (in DMSO) (1% DMSO is without effect on arachidonic acid metabolism) for ten minutes at room temperature. Calcium ionophore A23187 (5 μM) is added and cells are incubated for seven minutes at 37° C. The reaction is stopped by chilling the tubes on ice for ten minutes. Cells are separated by centrifugation and the supernatant is stored at -20°. Aliquots (100 μl) are analyzed for LTB4 and PGF2α using radioimmuno assay kits as provided by the supplier.

[2] = system: Mycobacterium-induced rat footpad edema; assay: Mycobacterium-induced rat footpad edema (MFE) assay; type: in vivo; conditions: swelling at 72 h; for ED40: Rattus norvegicus, po, probit analysis, read-out: MFE ID40 (dose at which swelling is inhibited by 40%)
Experimental: Mycobacterium - Induced Rat Footpad Edema Assay (MFE): Protocol
Myobacterium butyricum (5 mg/ml) is suspended in paraffin oil by sonication for ten minutes in an ice bath. Footpad edema is induced on Day 0 by injecting 0.1 ml of the Mycobacterium mixture into the left hindpaw of lightly anesthetized rats. Swelling in the injected hindpaw is determined by mercury plethysmography seventy-two hours after injection. Groups of rats are treated with test compounds (suspended in 0.5% hydroxypropyl methylcellulose with 0.2% Tween-80) or vehicle one hour before Myobacterium injection and on Days 1 and 2. Inhibition of swelling is determined by comparing the change in hindpaw volume in compound- and vehicle-treated rats. An ID40 (the dose at which swelling is inhibited by 40%) was calculated by probit analysis.

Cyclooxygenase [3] = target: T2, Cyclooxygenase (Rattus norvegicus, UniProt Q63921); assay: ARBC: RBL-1 whole cell cyclooxygenase assay (inhibition of PGF2α formation); type: cell-based; conditions: RBL-1 cells, A23187 5 μM; for % inhibition ARBC (RBL whole cell cyclooxygenase, PGF2α inhibition): @ 32 (μM); for IC50: PGF2α formation
T2 construct: host or cells: RBL-1 (rat basophilic leukemia)
T2 sequence (Q63921 27-602): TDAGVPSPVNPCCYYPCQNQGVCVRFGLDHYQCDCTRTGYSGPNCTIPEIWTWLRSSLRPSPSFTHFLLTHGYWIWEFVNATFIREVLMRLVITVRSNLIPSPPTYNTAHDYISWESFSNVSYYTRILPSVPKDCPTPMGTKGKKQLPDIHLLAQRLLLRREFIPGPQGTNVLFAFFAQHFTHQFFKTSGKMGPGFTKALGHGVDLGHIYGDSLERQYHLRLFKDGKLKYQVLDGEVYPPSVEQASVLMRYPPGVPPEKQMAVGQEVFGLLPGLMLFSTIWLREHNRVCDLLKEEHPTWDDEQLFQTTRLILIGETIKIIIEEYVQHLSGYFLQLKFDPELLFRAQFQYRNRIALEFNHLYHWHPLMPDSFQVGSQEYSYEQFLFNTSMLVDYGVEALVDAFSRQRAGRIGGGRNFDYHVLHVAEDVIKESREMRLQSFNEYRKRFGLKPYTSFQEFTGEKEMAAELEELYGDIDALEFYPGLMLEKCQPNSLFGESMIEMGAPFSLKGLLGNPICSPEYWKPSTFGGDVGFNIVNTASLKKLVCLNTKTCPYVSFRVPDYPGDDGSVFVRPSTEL
Text: as §1, §2, §3
(§4) Cells are harvested by centrifugation. They are washed with cold phosphate buffered saline pH 7.4 (PBS; NaCl, 7.1 g; Na2 PO4, 1.15 g; KH2 PO4, 0.2 g; and KCl, 0.2 g/l). […] Calcium ionophore A23187 (5 μM) is added and cells are incubated for seven minutes at 37° C. The reaction is stopped by chilling the tubes on ice for ten minutes. Cells are separated by centrifugation and the supernatant is stored at -20°. Aliquots (100 μl) are analyzed for LTB4 and PGF2α using radioimmuno assay kits as provided by the supplier.

gastric ulcers in rats = assay: Gastric ulcerogenicity (UD); type: in vivo, Male outbred Wistar rats; conditions: 100 mg/kg PO, fasted rats, 6 h
Experimental: (§5) Gastric Ulcerogenicity (UD) Protocol
(§6) Male outbred Wistar rats (100-250 gms) were fasted for twenty-four hours. After fasting, test compounds were administered orally (in 2 ml/Kg of 0.5% hydroxypropyl methylcellulose) and the rats were denied access to food and water for six more hours. The rats were then sacrificed with CO2 so that the stomachs could be removed, opened along the greater curvature, and evaluated for the presence of gastric ulcers. Results are expressed as the percent of rats with gastric ulcers at a given dose.

[4] = Gastric ulcerogenicity (UD); type: in vivo, Male outbred Wistar rats; conditions: rat, in vivo, po
Experimental: as §5, §6

Cyclooxygenase [5] = assay: ARBC: RBL-1 whole cell cyclooxygenase assay (inhibition of PGF2α formation); type: cell-based, rat; conditions: ARBL/ARBC IC50; >1.0 cyclooxygenase selective, <1.0 5-lipoxygenase selective
Text: as §1, §2, §3, §4

| IC50 (5-Lipoxygenase) [nM] | % inhibition ARBC (RBL whole cell cyclooxygenase, PGF2α inhibition) (Cyclooxygenase [3]) [%] | Structure (SMILES) | inhibition in vivo at 30 mg/kg [1] [%] | inhibition in vivo at 10 mg/kg [1] [%] | ED40 [2] [mg/kg] | also measured |
| --- | --- | --- | --- | --- | --- | --- |
| 1000 | 0 | CC1=C(CC(=O)N(C)O)c2cc(F)ccc2/C1=C\c1ccc([S+](C)[O-])cc1 (stereo not drawn) [Example 1, (Z)-6-fluoro-N-hydroxy-N,2-dimethyl-3-[[4-(methylsulfinyl)phenyl]methylene]-3H-indene-1-acetamide] | 15 | – | – | MFE % Inhibition @ Dose ([2]; 10 mg/kg PO): 30% |
| 26400 | 0 | CONC(=O)CC1=C(C)/C(=C/c2ccc([S+](C)[O-])cc2)c2ccc(F)cc21 (stereo not drawn) [Example 2, (Z)-6-fluoro-N-methoxy-2-methyl-3-[[4-(methylsulfinyl)phenyl]methylene]-3H-indene-1-acetamide] | – | – | – | – |
| 12900 | 0 | CC1=C(CC(=O)NO)c2cc(F)ccc2/C1=C\c1ccc([S+](C)[O-])cc1 (stereo not drawn) [Example 2A, (Z)-6-fluoro-N-hydroxy-2-methyl-3-[[4-(methylsulfinyl)phenYl]methylene]-3H-indene-1-acetamide] | 31 | – | – | MFE % Inhibition @ Dose ([2]; 50 mg/kg PO): 53% |
| 1400 | – | COc1ccc2c(c1)c(CC(=O)N(C)O)c(C)n2C(=O)c1ccc(Cl)cc1 [Example 3, 1-(4-Chlorobenzoyl)-N-hydroxy-5-methoxy-N,2-dimethyl-1H-indole-3-acetamide] | – | 29 | < 2 | percent of rats with gastric ulcers at a given dose (UD50 column) (gastric ulcers in rats): 10% |
| 900 | – | COc1ccc2c(c1)c(CC(=O)N(O)C(C)C)c(C)n2C(=O)c1ccc(Cl)cc1 [Example 5, 1-(4-Chlorobenzoyl)-N-hydroxy-5-methoxy-2-methyl-N-(1-methylethyl)-1H-indole-3-acetamide] | – | 27 | 0.82 | – |

| Structure (SMILES) | IC50 (5-Lipoxygenase) [nM] | % inhibition ARBC (RBL whole cell cyclooxygenase, PGF2α inhibition) (Cyclooxygenase [3]) [%] | inhibition in vivo at 30 mg/kg [1] [%] | inhibition in vivo at 10 mg/kg [1] [%] | ED40 [2] [mg/kg] | also measured |
| --- | --- | --- | --- | --- | --- | --- |
| CONC(=O)Cc1c(C)n(C(=O)c2ccc(Cl)cc2)c2ccc(OC)cc12 [Example 4, 1-(4-Chlorobenzoyl)-N,5-dimethoxy-2-methyl-1H-indole-3-acetamide] | 24000 | – | – | 40 | – | TD50 at 6 h [4]: 42 mg/kg; IC50 (Cyclooxygenase [3]): 200 nM; RATIO, selectivity of inhibition (Cyclooxygenase [5]): 120 |
| COc1ccc2c(c1)c(CC(=O)N(O)C1CCCCC1)c(C)n2C(=O)c1ccc(Cl)cc1 [Example 6, 1-(4-Chlorobenzoyl)-N-cyclohexyl-N-hydroxy-5-methoxy-2-methyl-1H-indole-3-acetamide] | 1600 | – | – | 22 | 4.7 | IC50 (Cyclooxygenase [3]): 100 nM; RATIO, selectivity of inhibition (Cyclooxygenase [5]): 16.0 |
| COc1ccc2c(c1)c(CC(=O)O)c(C)n2C(=O)c1ccc(Cl)cc1 [Indomethacin, 1(p-chlorobenzoyl)-5-methoxy-2-methylindole-3-acetic acid, reference compound] | > 100000 | – | – | – | 0.21 | inhibition in vivo at 5 mg/kg ([1]; po, 5 h): 36% |
| COc1ccc2c(c1)c(CC(=O)NO)c(C)n2C(=O)c1ccc(Cl)cc1 [Oxametacin, reference compound] | 7500 | – | 46 | – | – | TD50 at 6 h [4]: 103 mg/kg |
